Read-outs that look alike come from different tables or passages of the source.
Molecular target: T1, human cGAS (residues 161-522) (Homo sapiens, UniProt Q8N884)
T1 construct: Recombinantly expressed purified human cGAS (residues 161-522) was used at 25 nM; made in house
Test: cGAS Activity Assay—Malachite Green
Assay type: biochemical
Method in brief: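 Coupled malachite-green phosphate detection was used: enzyme and compound in 20 mM TRIS pH 7.5, 5 mM MgCl2, 0.01% BSA with 80 μM ATP, 80 μM GTP and 100 nM ISD DNA, 4 h at RT in the dark.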

[1] = cGAS inhibition, 25 nM cGAS, 80 μM ATP, 80 μM GTP, 100 nM ISD, 4 hour at RT, Malachite Green phosphate detection, read-out: IC50 cGAS

T1 sequence (Q8N884 161-522): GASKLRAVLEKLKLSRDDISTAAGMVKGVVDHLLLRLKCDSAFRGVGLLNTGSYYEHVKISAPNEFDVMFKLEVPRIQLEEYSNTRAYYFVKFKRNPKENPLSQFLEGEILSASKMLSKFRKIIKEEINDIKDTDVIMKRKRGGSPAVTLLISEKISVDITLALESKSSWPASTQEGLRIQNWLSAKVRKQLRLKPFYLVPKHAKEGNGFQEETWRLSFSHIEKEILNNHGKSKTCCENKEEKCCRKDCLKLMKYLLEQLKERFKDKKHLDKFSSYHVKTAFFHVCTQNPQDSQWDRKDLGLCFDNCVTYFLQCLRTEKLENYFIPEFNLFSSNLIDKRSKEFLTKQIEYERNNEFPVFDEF

IC50 [1] [nM]	IC50 [nM]	Compound
484	–	CCCc1cc(=O)n2nc(NCc3cc(-n4cnc(C)c4)ccc3Cl)nc2[nH]1 [Example 88, 2-[[2-Chloro-5-(4-methylimidazol-1-yl)phenyl]methylamino]-5-propyl-4H-[1,24]triazolo[1,5-a]pyrimidin-7-one]
–	4610	O=c1cc(CNc2ccccc2)[nH]c2nc(NCc3ccc(Cl)cc3Cl)nn12 [Example 79, 5-(Anilinomethyl)-2-[(2,4-dichlorophenyl)methylamino]-4H-[1,2,4]triazolo[1,5-a]pyrimidin-7-one]

More lines, now with the values behind:

Compound	IC50 [1] [nM]	IC50 [nM]
CCCc1cc(=O)n2nc(NCc3ccc(Cl)cc3C)nc2[nH]1 [Example 66, 2-[(4-chloro-2-methylphenyl)-methylamino]-5-propyl-4H-[1,2,4]triazolo[1,5-a]pyrimidin-7-one]	9280	–
CCCCc1cc(=O)n2nc(NCc3cc(-c4ccccc4)on3)nc2[nH]1 [Example 46, 5-butyl-2-[(5-phenylisoxazol-3-yl)methylamino]-4H-[1,2,4]-triazolo[1,5-a]pyrimidin-7-one-5-butyl-2-[(5-phenylisoxazol-3-yl)methylamino]-4H-[1,2,4]-triazolo[1,5-a]pyrimidin-7-one]	805	–
O=c1cc(Cc2ccccc2)[nH]c2nc(NCc3cc(-c4ccncc4)ccc3Cl)nn12 [Example 31, 5-benzyl-2-[[2-chloro-5-(4-pyridyl)phenyl]methylamino]-4H-[1,2,4]triazolo[1,5-a]-pyrimidin-7-one]	78	–

From US12509467B2 (Hoffmann-La Roche Inc., priority 2020, dated 2025)
